Data on 1 compound can be found in paper PMC11004178, “LDL receptor-related protein 5 selectively transports unesterified polyunsaturated fatty acids to intracellular compartments” (Nature Communications, 2024).

This test has as its target T1, mTORC1 (mTOR kinase complex) (Homo sapiens, UniProt P42345).
T1 construct: mTORC1 complex immunoprecipitated from HEK293T cells expressing HA-tagged Raptor; with Raptor (HA-tagged; mTORC1 complex)
Kind of test: in vitro kinase assay, immunoprecipitated mTORC1, GST-4EBP1 substrate, […] EPA (single concentration). The class given is biochemical.

Molecules are shown by their SMILES.

Take `CC/C=C\C/C=C\C/C=C\C/C=C\C/C=C\CCCC(=O)O` [EPA, eicosapentaenoic acid]: the “in vitro kinase assay, immunoprecipitated mTORC1, GST-4EBP1 substrate, 100 μM EP” value is reported as “The addition of EPA, but not EPA-EE, caused significant inhibition of 4EBP1 phosphorylation by immunoprecipitated mTORC1”.
